According to patent publication US12195506B2, “Immunotherapy with A*01 restricted peptides and combination of peptides against cancers and related methods” (Immatics Biotechnologies GmbH, priority 2018, dated 2025):

Key:
[1] = test system: CD8+ T cells; assay: In vitro T-cell priming assay with artificial antigen presenting cells loaded with peptide/MHC complexes and anti-CD28 antibody, pMHC multimer readout; format: cell-based, human; conditions: in vitro immunogenicity, peptide-specific multimer+ CD8+ T cells
Description: In order to obtain information regarding the immunogenicity of the TUMAPs of the present invention, the inventors performed investigations using an in vitro T-cell priming assay based on repeated stimulations of CD8+ T cells with artificial antigen presenting cells (aAPCs) loaded with peptide/MHC complexes and anti-CD28 antibody.
In order to perform in vitro stimulations by artificial antigen presenting cells loaded with peptide-MHC complex (pMHC) and anti-CD28 antibody, the inventors first isolated CD8+ T cells from fresh HLA-A*02 leukapheresis products via positive selection using CD8 microbeads (Miltenyi Biotec, Bergisch-Gladbach, Germany) of healthy donors obtained from the University clinics Mannheim, Germany, after informed consent.
PBMCs and isolated CD8+ lymphocytes were incubated in T-cell medium (TCM) until use consisting of RPMI-Glutamax (Invitrogen, Karlsruhe, Germany) supplemented with 10% heat inactivated human AB serum (PAN-Biotech, Aidenbach, Germany), 100 U/ml Penicillin/100 μg/ml Streptomycin (Cambrex, Cologne, Germany), 1 mM sodium pyruvate (CC Pro, Oberdorla, Germany), 20 μg/ml Gentamycin (Cambrex). 2.5 ng/ml IL-7 (PromoCell, Heidelberg, Germany) and 10 U/ml IL-2 (Novartis Pharma, Nurnberg, Germany) were also added to the TCM at this step.
Generation of pMHC/anti-CD28 coated beads, T-cell stimulations and readout was performed in a highly defined in vitro system using four different pMHC molecules per stimulation condition and 8 different pMHC molecules per readout condition.
The purified co-stimulatory mouse IgG2a anti human CD28 Ab 9.3 (Jung et al., 1987) was chemically biotinylated using Sulfo-N-hydroxysuccinimidobiotin as recommended by the manufacturer (Perbio, Bonn, Germany). Beads used were 5.6 μm diameter streptavidin coated polystyrene particles (Bangs Laboratories, Illinois, USA).
pMHC used for positive and negative control stimulations were A*0201/MLA-001 (peptide […] (SEQ ID NO. 433) from modified Melan-A/MART-1) and A*0201/DDX5-001 ([…] from DDX5, SEQ ID NO. 434), respectively.
800.000 beads/200 μI were coated in 96-well plates in the presence of 4×12.5 ng different biotin-pMHC, washed and 600 ng biotin anti-CD28 were added subsequently in a volume of 200 μI. Stimulations were initiated in 96-well plates by co-incubating 1×10^6 CD8+ T cells with 2×10^5 washed coated beads in 200 μI TCM supplemented with 5 ng/ml IL-12 (PromoCell) for 3 days at 37° C. Half of the medium was then exchanged by fresh TCM supplemented with 80 U/ml IL-2 and incubating was continued for 4 days at 37° C. This stimulation cycle was performed for a total of three times. For the pMHC multimer readout using 8 different pMHC molecules per condition, a two-dimensional combinatorial coding approach was used as previously described (Andersen et al., 2012) with minor modifications encompassing coupling to 5 different fluorochromes. Finally, multimeric analyses were performed by staining the cells with Live/dead near IR dye (Invitrogen, Karlsruhe, Germany), CD8-FITC antibody clone SK1 (BD, Heidelberg, Germany) and fluorescent pMHC multimers. For analysis, a BD LSRII SORP cytometer equipped with appropriate lasers and filters was used. Peptide specific cells were calculated as percentage of total CD8+ cells. Evaluation of multimeric analysis was done using the FlowJo software (Tree Star, Oregon, USA). In vitro priming of specific multimer+CD8+ lymphocytes was detected by comparing to negative control stimulations.

[2] = biological target: HLA-A*01:01 (Homo sapiens, UniProt P04439, A114D/A174V/A182V/D101N/D185E/E176A/E190D/L180R/Q94H/R68K/S129P/T187R/V100A/V91M/W191G); assay: MHC binding assay: UV-ligand exchange, ELISA of stabilized MHC complexes (peptide exchange yield); conditions: binding to HLA-A*01:01, UV-ligand exchange
How it was run: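 Peptide–MHC complexes were formed by UV-induced exchange of a photocleavable ligand for the test peptide. Exchange yield was measured by streptavidin-capture ELISA of 100-fold diluted complexes, detected with HRP anti-β2m at A450. Refolded HLA-A*02:01/MLA-001 monomers at 15-500 ng/ml served as standards.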

| Substance | Peptide exchange [2] | Wells positive [%] ([1]; Table 10b) | Wells positive [%] ([1]; Table 10a) |
| --- | --- | --- | --- |
| 53 (YLEDRPLSQLY; listed as Homo sapiens) [compound 53] | ++++ (>75% = ++++) | + (<20% = +) | – |
| 10 (VSERTGISY; listed as Homo sapiens) [compound 10] | +++ (>50 = +++) | + (<20% = +) | – |
| 42 (ASDVDTLLK; listed as Homo sapiens) [compound 42] | +++ (>50 = +++) | + (<20% = +) | – |
| 24 (NLDHYTNAY; listed as Homo sapiens) [compound 24] | +++ (>50 = +++) | + (<20% = +) | – |
| 33 (SMDPVTGYQY; listed as Homo sapiens) [compound 33] | +++ (>50 = +++) | + (<20% = +) | – |
| 429 (VSDSECLSRY; listed as Homo sapiens) [compound 429] | – | – | ++ (20%-49% = ++) |
| 417 (KLDRSVFTAY; listed as Homo sapiens) [compound 417] | – | – | ++++ (>= 70% = ++++) |
| 18 (RSDPVSLRY; listed as Homo sapiens) [compound 18] | ++++ (>75% = ++++) | ++ (20%-49% = ++) | – |
| 404 (FVDNQYWRY; listed as Homo sapiens) [compound 404] | – | – | + (<20% = +) |
| 421 (RSDPGGGGLAY; listed as Homo sapiens) [compound 421] | – | – | + (<20% = +) |
| 408 (VWSDVTPLTF; listed as Homo sapiens) [compound 408] | – | – | + (<20% = +) |
| 26 (ASDDFRSKY; listed as Homo sapiens) [compound 26] | +++ (>50 = +++) | ++ (20%-49% = ++) | – |
| 37 (MTSTEQSLYY; listed as Homo sapiens) [compound 37] | +++ (>50 = +++) | + (<20% = +) | – |
| 401 (VWSNVTPLKF; listed as Homo sapiens) [compound 401] | – | – | + (<20% = +) |
| 427 (LTDYINANY; listed as Homo sapiens) [compound 427] | – | – | + (<20% = +) |
| 19 (LTEGHSGNY; listed as Homo sapiens) [compound 19] | ++++ (>75% = ++++) | + (<20% = +) | – |
| 403 (SADDIRGIQSLY; listed as Homo sapiens) [compound 403] | – | – | + (<20% = +) |
| 11 (ASDHWRGRY; listed as Homo sapiens) [compound 11] | +++ (>50 = +++) | +++ (50%-69% = +++) | – |
| 12 (YTDFVGEGLY; listed as Homo sapiens) [compound 12] | +++ (>50 = +++) | + (<20% = +) | – |
| 399 (YVGKEHMFY; listed as Homo sapiens) [compound 399] | – | – | + (<20% = +) |
| 400 (NTDNNLAVY; listed as Homo sapiens) [compound 400] | – | – | + (<20% = +) |
| 420 (VTDLEMPHY; listed as Homo sapiens) [compound 420] | – | – | + (<20% = +) |
| 27 (PSEVPVDSHY; listed as Homo sapiens) [compound 27] | ++++ (>75% = ++++) | + (<20% = +) | – |

Further lines, with some results ahead:

| Peptide exchange [2] | Substance | Wells positive [%] ([1]; Table 10b) | Wells positive [%] ([1]; Table 10a) |
| --- | --- | --- | --- |
| +++ (>50 = +++) | 81 (YSDLHTPGRY; listed as Homo sapiens) [compound 81] | + (<20% = +) | – |
| +++ (>50 = +++) | 79 (ASDLEPRELLSY; listed as Homo sapiens) [compound 79] | + (<20% = +) | – |
| ++++ (>75% = ++++) | 84 (ESEMIKFASYY; listed as Homo sapiens) [compound 84] | + (<20% = +) | – |
| ++++ (>75% = ++++) | 73 (STDSASYY; listed as Homo sapiens) [compound 73] | + (<20% = +) | – |
| +++ (>50 = +++) | 70 (YTELVEEKY; listed as Homo sapiens) [compound 70] | + (<20% = +) | – |
| +++ (>50 = +++) | 61 (SSDIVALGGFLY; listed as Homo sapiens) [compound 61] | ++ (20%-49% = ++) | – |
| +++ (>50 = +++) | 54 (EVDIHTIHY; listed as Homo sapiens) [compound 54] | + (<20% = +) | – |
| ++++ (>75% = ++++) | 386 (NSALNPLLY; listed as Homo sapiens) [compound 386] | + (<20% = +) | – |
| +++ (>50 = +++) | 64 (TSEISQNALMYY; listed as Homo sapiens) [compound 64] | + (<20% = +) | – |
| +++ (>50 = +++) | 71 (LTDSTTRTTY; listed as Homo sapiens) [compound 71] | + (<20% = +) | – |
| +++ (>50 = +++) | 83 (DTEFHGGLHY; listed as Homo sapiens) [compound 83] | + (<20% = +) | – |
| ++++ (>75% = ++++) | 77 (FTSDTGLEY; listed as Homo sapiens) [compound 77] | +++ (50%-69% = +++) | – |
| +++ (>50 = +++) | 82 (LTEKSHIRY; listed as Homo sapiens) [compound 82] | + (<20% = +) | – |
| +++ (>50 = +++) | 387 (LMEKEDYHSLY; listed as Homo sapiens) [compound 387] | + (<20% = +) | – |
| ++++ (>75% = ++++) | 60 (MTEKFLFLY; listed as Homo sapiens) [compound 60] | + (<20% = +) | – |
| ++++ (>75% = ++++) | 75 (FTDYELKAY; listed as Homo sapiens) [compound 75] | + (<20% = +) | – |
